Patent publication US9371320B2, “Heterocyclic compound” (TAKEDA PHARMACEUTICAL COMPANY LIMITED, priority 2012, dated 2016)

Key:
[1] = biological target: T1, Tyk2 (Homo sapiens, UniProt P29597); test: Tyk2 enzyme inhibition test (LANCE method); format: biochemical; conditions: test compound 1 μM; read-out: Inhibitory rate (%) Tyk2 1 μM
T1 construct: purchased Invitrogen
Outline: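 Recombinant Tyk2 (375 ng/mL stock) with ULight-JAK1 peptide (300 nM stock) and ATP (30 μM stock) in HEPES pH 7.5/MgCl2/EGTA/DTT buffer, 1 h at room temperature. Stopped with EDTA plus Eu-anti-phosphotyrosine antibody; TR-FRET read at 665 nm after 1 h. No-enzyme wells define 100% inhibition.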

[2] = biological target: T2, JAK1 (Homo sapiens, UniProt P23458); test: JAK1 enzyme inhibition test (LANCE method); format: biochemical; conditions: for inhibition at 1 µM: test compound 1 μM, read-out: Inhibitory rate (%) JAK1 1 μM; for inhibition at 10 µM: test compound 10 μM (Ex. 182-220), beside Tyk2 1 μM, read-out: Inhibitory rate (%) JAK1 10 μM
T2 construct: purchased Invitrogen
Outline: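 TR-FRET (LANCE) kinase assay using JAK1 at 187.5 ng/mL, ULight-JAK1 peptide at 300 nM and ATP at 150 μM, given as solution concentrations before mixing. Buffer was 50 mM HEPES pH 7.5 with 10 mM MgCl2 and 2 mM DTT, and the reaction ran 1 h at room temperature. Eu anti-phosphotyrosine signal at 665 nm was expressed relative to a no-enzyme well, taken as 100% inhibition.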

T2 sequence (P23458 whole entry): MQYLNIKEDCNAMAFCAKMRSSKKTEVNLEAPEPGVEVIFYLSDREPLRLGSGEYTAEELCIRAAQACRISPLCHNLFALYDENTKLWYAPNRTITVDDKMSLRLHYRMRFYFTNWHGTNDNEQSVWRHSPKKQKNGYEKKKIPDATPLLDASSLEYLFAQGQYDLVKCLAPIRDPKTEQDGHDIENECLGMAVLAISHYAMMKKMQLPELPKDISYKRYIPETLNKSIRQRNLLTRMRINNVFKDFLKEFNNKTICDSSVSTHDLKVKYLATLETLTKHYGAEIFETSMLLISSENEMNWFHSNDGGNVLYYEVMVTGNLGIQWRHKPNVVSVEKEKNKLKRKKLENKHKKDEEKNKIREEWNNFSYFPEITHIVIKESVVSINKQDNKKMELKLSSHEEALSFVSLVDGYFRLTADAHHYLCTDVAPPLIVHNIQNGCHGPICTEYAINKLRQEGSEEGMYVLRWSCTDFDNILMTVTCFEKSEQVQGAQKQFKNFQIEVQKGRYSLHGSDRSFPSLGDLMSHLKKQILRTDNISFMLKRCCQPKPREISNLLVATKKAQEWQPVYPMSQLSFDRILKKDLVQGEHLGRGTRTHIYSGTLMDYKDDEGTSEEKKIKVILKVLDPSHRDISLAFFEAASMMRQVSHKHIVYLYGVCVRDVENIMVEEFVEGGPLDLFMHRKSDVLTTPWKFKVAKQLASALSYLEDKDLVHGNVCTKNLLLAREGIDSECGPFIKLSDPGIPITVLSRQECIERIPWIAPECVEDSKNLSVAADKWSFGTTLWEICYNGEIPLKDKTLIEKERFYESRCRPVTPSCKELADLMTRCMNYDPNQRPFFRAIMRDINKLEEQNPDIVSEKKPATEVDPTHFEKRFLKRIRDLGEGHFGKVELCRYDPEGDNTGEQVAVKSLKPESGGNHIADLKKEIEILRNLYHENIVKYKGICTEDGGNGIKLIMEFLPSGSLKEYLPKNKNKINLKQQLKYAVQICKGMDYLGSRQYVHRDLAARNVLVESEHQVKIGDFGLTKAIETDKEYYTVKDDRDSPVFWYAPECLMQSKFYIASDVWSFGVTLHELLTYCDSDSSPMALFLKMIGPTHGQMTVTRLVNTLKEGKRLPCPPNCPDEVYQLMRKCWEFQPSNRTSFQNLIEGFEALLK
T1 sequence (P29597 whole entry): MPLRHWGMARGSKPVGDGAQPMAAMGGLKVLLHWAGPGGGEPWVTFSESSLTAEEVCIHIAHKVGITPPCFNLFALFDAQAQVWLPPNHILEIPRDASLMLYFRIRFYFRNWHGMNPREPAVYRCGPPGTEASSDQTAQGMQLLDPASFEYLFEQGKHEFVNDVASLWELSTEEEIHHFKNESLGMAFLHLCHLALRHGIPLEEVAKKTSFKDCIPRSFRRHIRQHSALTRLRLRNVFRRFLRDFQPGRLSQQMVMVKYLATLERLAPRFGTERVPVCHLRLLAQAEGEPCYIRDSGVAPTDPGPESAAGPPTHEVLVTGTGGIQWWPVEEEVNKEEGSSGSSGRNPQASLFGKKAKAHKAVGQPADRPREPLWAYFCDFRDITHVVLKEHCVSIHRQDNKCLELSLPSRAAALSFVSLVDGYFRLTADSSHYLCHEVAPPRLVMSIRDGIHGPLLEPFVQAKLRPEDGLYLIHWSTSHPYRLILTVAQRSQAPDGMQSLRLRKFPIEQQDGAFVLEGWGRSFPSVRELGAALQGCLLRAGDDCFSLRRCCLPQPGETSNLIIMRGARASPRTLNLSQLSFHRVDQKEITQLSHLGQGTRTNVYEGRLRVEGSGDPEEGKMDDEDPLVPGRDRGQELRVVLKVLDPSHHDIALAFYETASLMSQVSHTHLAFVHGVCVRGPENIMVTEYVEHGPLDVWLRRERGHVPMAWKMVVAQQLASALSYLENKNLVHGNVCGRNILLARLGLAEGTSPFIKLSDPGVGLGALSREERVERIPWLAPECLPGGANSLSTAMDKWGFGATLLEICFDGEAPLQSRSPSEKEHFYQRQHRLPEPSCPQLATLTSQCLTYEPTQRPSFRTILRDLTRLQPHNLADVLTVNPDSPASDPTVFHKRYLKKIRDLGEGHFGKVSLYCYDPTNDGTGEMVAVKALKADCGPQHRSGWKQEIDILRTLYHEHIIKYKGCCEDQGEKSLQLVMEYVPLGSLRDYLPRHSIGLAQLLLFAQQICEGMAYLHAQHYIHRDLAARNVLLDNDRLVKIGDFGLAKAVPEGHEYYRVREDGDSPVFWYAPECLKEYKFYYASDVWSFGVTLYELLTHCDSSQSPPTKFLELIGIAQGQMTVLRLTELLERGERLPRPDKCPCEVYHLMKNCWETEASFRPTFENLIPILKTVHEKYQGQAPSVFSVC

SMILES	inhibition at 1 µM [1] [%]	inhibition at 1 µM [2] [%]	inhibition at 10 µM [2] [%]
NC(=O)c1ccc(-c2nn(-c3c(F)cccc3F)c3cc[nH]c(=O)c23)cc1 [Example 230, 4-(1-(2,6-difluorophenyl)-4-oxo-4,5-dihydro-1H-pyrazolo[4,3-c]pyridin-3-yl)benzamide]	99	92	
O=c1[nH]ccc2c1c(-c1cccc(CN3CCC(F)(F)C3)c1)nn2-c1c(F)cccc1F [Example 261, 1-(2,6-difluorophenyl)-3-(3-((3,3-difluoropyrrolidin-1-yl)methyl)phenyl)-1,5-dihydro-4H-pyrazolo[4,3-c]pyridin-4-one]	94	41	
CC1(Cn2nc(-c3ccc(S(N)(=O)=O)cc3)c3c(=O)[nH]ccc32)COC1 [Example 100, 4-(1-((3-methyloxetan-3-yl)methyl)-4-oxo-4,5-dihydro-1H-pyrazolo[4,3-c]pyridin-3-yl)benzenesulfonamide]	77	96	
O=C(NCCO)c1ccc(-c2nn(-c3c(F)cccc3F)c3cc[nH]c(=O)c23)cc1 [Example 237, 4-(1-(2,6-difluorophenyl)-4-oxo-4,5-dihydro-1H-pyrazolo[4,3-c]pyridin-3-yl)-N-(2-hydroxyethyl)benzamide]	99	87	
CNC(=O)c1ccc(-c2nn(-c3c(F)cccc3F)c3c(Cl)c[nH]c(=O)c23)cc1 [Example 194, 4-(7-chloro-1-(2,6-difluorophenyl)-4-oxo-4,5-dihydro-1H-pyrazolo[4,3-c]pyridin-3-yl)-N-methylbenzamide]	100		67
N#Cc1c[nH]c(=O)c2c(-c3cnn(C4CCCC4)c3)cn(C3CCCC3)c12 [Example 137, 1-cyclopentyl-3-(1-cyclopentyl-1H-pyrazol-4-yl)-4-oxo-4,5-dihydro-1H-pyrrolo[3,2-c]pyridine-7-carbonitrile]	98	77	
C[C@@H]1COCCN1c1ccc(-c2nn(-c3c(F)cccc3F)c3cc[nH]c(=O)c23)cc1 [Example 246, 1-(2,6-difluorophenyl)-3-(4-((3R)-3-methylmorpholin-4-yl)phenyl)-1,5-dihydro-4H-pyrazolo[4,3-c]pyridin-4-one]	99	94	
Nc1cc(F)c(-n2nc(-c3ccc(S(N)(=O)=O)cc3)c3c(=O)[nH]ccc32)c(F)c1 [Example 303, 4-(1-(4-amino-2,6-difluorophenyl)-4-oxo-4,5-dihydro-1H-pyrazolo[4,3-c]pyridin-3-yl)benzenesulfonamide]	100	99	
CC(C)(C)NC(=O)c1cc(-c2cn(C3CCCC3)c3c(C#N)c[nH]c(=O)c23)cs1 [Example 123, N-tert-butyl-4-(7-cyano-1-cyclopentyl-4-oxo-4,5-dihydro-1H-pyrrolo[3,2-c]pyridin-3-yl)thiophene-2-carboxamide]	99	99	
COC(=O)c1cc(-n2nc(-c3ccccc3C)c3c(Br)c[nH]c(=O)c32)cs1 [Example 78, methyl 4-(4-bromo-3-(2-methylphenyl)-7-oxo-6,7-dihydro-1H-pyrazolo[3,4-c]pyridin-1-yl)thiophene-2-carboxylate]	75	23	
O=c1[nH]ccc2c1c(-c1ccccc1)cn2C1CCCC1 [Example 1, 1-cyclopentyl-3-phenyl-1,5-dihydro-4H-pyrrolo[3,2-c]pyridin-4-one]	51	40	
O=C1OCCN1Cc1ccc(-c2nn(-c3c(F)cccc3F)c3c(Cl)c[nH]c(=O)c23)cc1 [Example 186, 7-chloro-1-(2,6-difluorophenyl)-3-(4-((2-oxo-1,3-oxazolidin-3-yl)methyl)phenyl)-1,5-dihydro-4H-pyrazolo[4,3-c]pyridin-4-one]	99		82
